Laboratory results published in article PMC4604765, “Eye drop delivery of pigment epithelium-derived factor-34 promotes retinal ganglion cell neuroprotection and axon regeneration” (Molecular and Cellular Neurosciences, 2015).
No end group written: not given here.

Columns and labels:
RGC axons = assay: RGC axon regeneration after optic nerve crush (GAP-43 immunohistochemistry of optic nerve); assay type: in vivo, rat; details: 21 days after ONC; for number of GAP-43+ axons distal from the lesion site: daily eye drops 1.88 nM; for number of GAP-43+ axons in distal optic nerve stump: weekly intravitreal 1.88 nM
Protocol: In a separate set of experiments comprising the same treatment groups, 6 rats/treatment (i.e. 12 eyes/optic nerves/treatment) were used to evaluate RGC axon regeneration by immunostaining with growth-associated protein-43 (GAP-43) in the optic nerve.
In further experiments, 12 rats (24 eyes/optic nerves)/treatment received 1.88 nM PEDF-34 eye drops daily. Six rats (12 eyes)/treatment were used to assess RGC survival at 21 days using FG backfilling, whilst the remaining 6 rats (12 eyes/optic nerves)/treatment were used to evaluate RGC axon regeneration at 21 days by GAP-43 immunohistochemistry.
All animal procedures were licenced and approved by the United Kingdom Home Office and the University of Birmingham ethical review committee and conformed to the Federation of European Laboratory Animal Associations (FELASA) guidelines. Optic nerves were exposed surgically in anaesthetised adult female Sprague–Dawley rats (170–220 g) through a supraorbital approach and crushed bilaterally using calibrated watchmakers forceps, 2 mm from the lamina cribrosa as described by us previously ([Vigneswara et al., 2013, 2014]).
Either PBS, or 0.268, 0.67, 1.34, 1.88, or 2.68 nM PEDF dissolved in 5 μl of sterile PBS was injected intravitreally immediately after ONC (0 days) and repeated at 7 and 14 days after ONC with the same doses of PEDF. […] Animals survived for 19 days before FG back-labelling and killing by rising CO2 levels 2 days later, and eyes/optic nerves harvested for retinal FG wholemounts.
Animals were killed with an overdose of CO2 and intracardially perfused with 4% formaldehyde, eyes and optic nerves were immersion fixed in 4% formaldehyde for a further 2 h before cryoprotection in a graded series of sucrose. Eyes and optic nerves were embedded in optimal cutting temperature (OCT) compound (Raymond A. Lamb, Eastbourne, UK) and stored at − 80 °C. Subsequently, 15 μm-thick parasagittal eye or longitudinal optic nerve sections were cut using a cryostat (Brights Instruments, Huntingdon, UK), adhered onto glass slides and stored at − 20 °C until required.
Immunohistochemistry was performed as described by us previously ([Vigneswara et al., 2013, 2014]). Briefly, sections were thawed, washed at RT in PBS and permeabilised. Non-specific binding sites were blocked in 3% bovine serum albumin (BSA) containing 0.1% Triton X-100 and then sections were incubated in primary antibody diluted in PBS containing 3% BSA and 0.05% Tween-20, overnight at 4 °C (16–18 h). Monoclonal anti-GAP-43 antibody (1:500 dilution; Invitrogen) stained regenerating axons in optic nerve sections (Table 1). […] Sections were then washed in PBS and incubated with either Alexa Fluor 488 or Texas Red-labelled secondary antibodies (1:400 dilution; Invitrogen) for 1 h at RT, washed in PBS, mounted in Vectamount containing DAPI (Vector Laboratories) and examined with a Zeiss Axioplan 2 fluorescent microscope, equipped with an AxioCam HRc camera and Axiovision software. The negative control sections were used to set the background threshold levels of fluorescence before image capture.
Regenerating axons in the optic nerve were quantified using previously published methods ([Leon et al., 2000; Lorber et al., 2009; Vigneswara et al., 2013, 2014]). […] Briefly, an observer blinded to the identity of the slides […] through each nerve (n = 6 rats/12 optic nerves/treatment).

[1] = tested on: embryonic rat spinal motor neurons; details: ref Bilak et al., 2002; cited from earlier work
Description: Axotomised RGCs are not viable unless treated with neurotrophic factors such as brain-derived neurotrophic factor, ciliary neurotrophic factor and glial cell line-derived factor ([Ahmed et al., 2006b; Benowitz and Yin, 2007; Watanabe et al., 2003; Yip and So, 2000]). Recently, we confirmed that, after optic nerve crush (ONC), PEDF is RGC neuroprotective and axogenic ([Vigneswara et al., 2013]), whilst other neuroprotective and anti-angiogenic N-terminal fragments of the native peptide exist ([Bilak et al., 2002; Gvritishvili et al., 2010; Li et al., 2006; Mirochnik et al., 2009]) including the ...

DPFFKVPVNKLAAAVSNFGYDLYRVRSSTSPTTN [PEDF-34]
number of GAP-43+ axons distal from the lesion site (RGC axons; 200 μm distal, n = 6 rats/12 optic nerves): 4049 ± 355 axons
number of GAP-43+ axons distal from the lesion site (RGC axons; 500 μm distal): 2893 ± 315 axons
number of GAP-43+ axons distal from the lesion site (RGC axons; 1000 μm distal): 2043 ± 120 axons
number of GAP-43+ axons distal from the lesion site (RGC axons; 1500 μm distal): 1285 ± 126 axons
number of GAP-43+ axons distal from the lesion site (RGC axons; 2000 μm distal): 884 ± 139 axons
number of GAP-43+ axons distal from the lesion site (RGC axons; 2500 μm distal): 582 ± 155 axons
number of GAP-43+ axons in distal optic nerve stump (RGC axons; 200 μm from the lesion site, n = 6 rats/12 optic nerves): 2038 ± 234 axons
number of GAP-43+ axons in distal optic nerve stump (RGC axons; 500 μm from the lesion site): 1733 ± 237 axons
number of GAP-43+ axons in distal optic nerve stump (RGC axons; 1000 μm from the lesion site): 1462 ± 175 axons
number of GAP-43+ axons in distal optic nerve stump (RGC axons; 1500 μm from the lesion site): 945 ± 100 axons
number of GAP-43+ axons in distal optic nerve stump (RGC axons; 2000 μm from the lesion site): 79 ± 44 axons
neuroprotection of embryonic rat spinal motor neurons [1]: not neuroprotective
